# Assay results as given in patent publication US20220047476A1, “A METHOD FOR FIGHTING FEMALE BODY ODORS” (SYMRISE AG, priority 2018, published 2022).
# Assays:
# [1] = Malodor reduction via sensory testing, sweat malodor model; parameters: species or system human; settings: trained female panel N=9, 1=no odor to 10=strongest imaginable, averaged, malodor only 5.8, 0.0% control 5.1
# Experimental: (§1) A trained sensory panel consisting of females, (N=9) ages 40-55 years old evaluated the samples. Panelists are regularly trained on fragrance and malodor intensity scoring and must pass routine screening and calibration tests to remain on the panel. Panelist onboarding and orientation was performed following ASTM Committee E-18 on Sensory Evaluation of Materials and Products, Guidelines for the Selection and Training of Sensory Panel Members (ASTM STP758, American Society for Testing and Materials, 1981, pp. 1-35). Panelists were selected based on health, interest, availability, descriptive and scaling ability, olfactory acuity, attitude and personality. Panelists are introduced to intensity measurement using selected intensity standards and exercised in the use of the scaling system to quantify intensity.
# (§2) Training and evaluation was performed for six weeks following orientation. Each panelist completed practice sessions where they were exposed to different types of odors (malodor, fragrance, etc.) and different substrates (fabric, clothing, blotter cards, jars, etc.). Panelist inclusion was dependent upon panel administrator discussions, specific response evaluation, and comparison to standards.
# (§3) In this example, feminine wash was formulated with various concentrations of 5-methyl-2-(1-methylethyl)-cyclohexanol acetate, as shown in Table 1 below. A sample without of 5-methyl-2-(1-methylethyl)-cyclohexanol acetate was used as a control.
# (§4) The sweat malodor model is comprised of malodors including 3-methyl-2-hexenoic acid and 3-mercapto-3-methyl-1-hexanol. The feminine odor model contains acetic acid, 2-methyl-butyric acid, valeric acid and trimethyl amine. The trained panelists subjectively evaluated the samples using a 10-point scoring scale (1=no odor to 10=strongest imaginable). Panelists are first shown the malodor only sample as a reference, and asked to rate its odor intensity. Panelists are then shown the test samples in a blinded fashion labelled with a 3 digit code. There is a 45 second wait time between samples to prevent olfactive fatigue. […]
# [2] = Vapor pressure reduction: malodors in closed flask headspace, cold finger collection, GC FID; assay type: physicochemical; settings: with 1 g active in separate dish, sealed 500 mL flask, four hours, cold finger 10° C.
# Experimental: Two 500 mL Erlenmeyer flasks were prepared with a blend of five malodor substances (200 mg total; indole, methyl phenyl acetate, skatol, p-cresyl isovalerate, isoamyl phenylacetate) in a small dish. To one flask, in a separate small dish, was added 1 g of 5-methyl-2-(1-methylethyl)-cyclohexanol acetate. Each flask was sealed with a cold finger through which water at 10° C. was passed. After four hours, the flasks were opened and the cold fingers were washed with diethyl ether. This eluent is representative of the headspace above the sample, and quantifies the malodor concentration in the air. The collected diethyl ether fractions were made to a standard volume and analyzed by gas chromatography (GC FID). This experiment is meant to analyze the interaction of malodor with 5-methyl-2-(1-methylethyl)-cyclohexanol acetate in a way that mimics a consumer's experience.
# [3] = Malodor reduction via sensory testing, feminine (vaginal) odor model; parameters: species or system human; settings: trained female panel N=9, 1=no odor to 10=strongest imaginable, averaged, malodor only 6.0, 0.0% control 5.3
# Experimental: as §1, §2, §3, §4
smiles,measurement,setting,value
CC(=O)O[C@@H]1C[C@H](C)CC[C@H]1C(C)C [5-methyl-2-(1-methylethyl)-cyclohexanol acetate],Sweat Malodor intensity rating from 1 to 10,[1]; 0.1% active in feminine wash,4.8
same,Sweat Malodor intensity rating from 1 to 10,[1]; 0.2% active in feminine wash,3.0
same,Sweat Malodor intensity rating from 1 to 10,[1]; 0.5% active in feminine wash,2.2
same,Relative Amount of Malodor: skatol,[2]; without active 0.06,0.0003
same,Relative Amount of Malodor: p-cresyl isovalerate,[2]; without active 0.10,0.0002
same,Relative Amount of Malodor: isoamyl phenylacetate,[2]; without active 1.20,0.0000
same,Relative Amount of Malodor: indole,[2]; without active 1.30,0.0300
same,Relative Amount of Malodor: methyl phenyl acetate,[2]; without active 1.50,0.0000
same,Feminine (Vaginal) Malodor intensity rating from 1 to 10,[3]; 0.1% active in feminine wash,4.5
same,Feminine (Vaginal) Malodor intensity rating from 1 to 10,[3]; 0.2% active in feminine wash,3.3
same,Feminine (Vaginal) Malodor intensity rating from 1 to 10,[3]; 0.5% active in feminine wash,2.6
